In brackets after ≈: the same amount, converted by molar mass.
Columns and labels:
Format in all cases: functional
Aspergillus niger = assay: Antifungal activity against Aspergillus niger MTCC 282 by two-fold serial dilution method
Staphylococcus aureus = assay: Antibacterial activity against Staphylococcus aureus MTCC 96 by two-fold serial dilution method
Candida albicans = assay: Antifungal activity against Candida albicans MTCC 227 by two-fold serial dilution method
Aspergillus clavatus = assay: Antifungal activity against Aspergillus clavatus MTCC 1323 by two-fold serial dilution method
Streptococcus pyogenes = assay: Antibacterial activity against Streptococcus pyogenes MTCC 442 by two-fold serial dilution method
Pseudomonas aeruginosa = assay: Antibacterial activity against Pseudomonas aeruginosa MTCC 1688 by two-fold serial dilution method
Escherichia coli = assay: Antibacterial activity against Escherichia coli MTCC 443 by two-fold serial dilution method

| Compound | MIC (Aspergillus niger) [µM] | MIC (Staphylococcus aureus) [µM] | MIC (Candida albicans) [µM] | MIC (Aspergillus clavatus) [µM] | MIC (Streptococcus pyogenes) [µM] | MIC (Pseudomonas aeruginosa) [µM] | MIC (Escherichia coli) [µM] |
| --- | --- | --- | --- | --- | --- | --- | --- |
| COc1ccc(C2NC(=S)NC(C)=C2C(=O)Nc2ccc(C)cc2C)cc1 (configuration not stated) | 3250 (≈ 1240 µg/mL) | 203 (≈ 77.4 µg/mL) | 3250 (≈ 1240 µg/mL) | 3250 (≈ 1240 µg/mL) | 406 (≈ 155 µg/mL) | 325 (≈ 124 µg/mL) | 203 (≈ 77.4 µg/mL) |
| CC1=C(C(=O)Nc2ccc(C)cc2C)C(c2cccc([N+](=O)[O-])c2)NC(=S)N1 (configuration not stated) | 3250 (≈ 1290 µg/mL) | 812 (≈ 322 µg/mL) | 1620 (≈ 644 µg/mL) | 3250 (≈ 1290 µg/mL) | 649 (≈ 257 µg/mL) | 812 (≈ 322 µg/mL) | 649 (≈ 257 µg/mL) |
| CC1=C(C(=O)Nc2ccc(C)cc2C)C(c2cccc(O)c2)NC(=S)N1 (configuration not stated) | 3250 (≈ 1190 µg/mL) | 649 (≈ 239 µg/mL) | 1620 (≈ 597 µg/mL) | 3250 (≈ 1190 µg/mL) | 203 (≈ 74.6 µg/mL) | 649 (≈ 239 µg/mL) | 812 (≈ 298 µg/mL) |
| CC1=C(C(=O)Nc2ccc(C)cc2C)C(c2ccc(Cl)cc2)NC(=S)N1 (configuration not stated) | 3250 (≈ 1250 µg/mL) | 812 (≈ 313 µg/mL) | 3250 (≈ 1250 µg/mL) | 3250 (≈ 1250 µg/mL) | 649 (≈ 251 µg/mL) | 649 (≈ 251 µg/mL) | 812 (≈ 313 µg/mL) |
| CC1=C(C(=O)Nc2ccc(C)cc2C)C(c2ccccc2[N+](=O)[O-])NC(=S)N1 (configuration not stated) | 3250 (≈ 1290 µg/mL) | 649 (≈ 257 µg/mL) | 3250 (≈ 1290 µg/mL) | 3250 (≈ 1290 µg/mL) | 406 (≈ 161 µg/mL) | 649 (≈ 257 µg/mL) | 649 (≈ 257 µg/mL) |
| NYSTATIN | 100 |  | 100 | 100 |  |  |  |
| O=C(N[C@H](CO)[C@H](O)c1ccc([N+](=O)[O-])cc1)C(Cl)Cl [CHLORAMPHENICOL] |  | 50 (≈ 16.2 µg/mL) |  |  | 50 (≈ 16.2 µg/mL) | 50 (≈ 16.2 µg/mL) | 50 (≈ 16.2 µg/mL) |
| CC1=C(C(=O)Nc2ccc(C)cc2C)C(c2ccccc2O)NC(=S)N1 (configuration not stated) | 3250 (≈ 1190 µg/mL) | 812 (≈ 298 µg/mL) | 3250 (≈ 1190 µg/mL) | 3250 (≈ 1190 µg/mL) | 325 (≈ 119 µg/mL) | 406 (≈ 149 µg/mL) | 325 (≈ 119 µg/mL) |
| CC1=C(C(=O)Nc2ccc(C)cc2C)C(c2cccc(Cl)c2)NC(=S)N1 (configuration not stated) | 3250 (≈ 1250 µg/mL) | 812 (≈ 313 µg/mL) | 1620 (≈ 627 µg/mL) | 3250 (≈ 1250 µg/mL) | 649 (≈ 251 µg/mL) | 649 (≈ 251 µg/mL) | 325 (≈ 125 µg/mL) |
| CC1=C(C(=O)Nc2ccc(C)cc2C)C(c2ccc([N+](=O)[O-])cc2)NC(=S)N1 (configuration not stated) | 3250 (≈ 1290 µg/mL) | 812 (≈ 322 µg/mL) | 1620 (≈ 644 µg/mL) | 3250 (≈ 1290 µg/mL) | 812 (≈ 322 µg/mL) | 812 (≈ 322 µg/mL) | 406 (≈ 161 µg/mL) |
| CC1(C)S[C@@H]2[C@H](NC(=O)[C@H](N)c3ccccc3)C(=O)N2[C@H]1C(=O)O [AMPICILLIN] |  | 250 (≈ 87.4 µg/mL) |  |  | 100 (≈ 34.9 µg/mL) | 100 (≈ 34.9 µg/mL) | 100 (≈ 34.9 µg/mL) |

Source: ChEMBL document CHEMBL2424643, “An efficient synthesis, characterization, and antimicrobial screening of tetrahydropyrimidine derivatives” (2013)
